Laboratory results: PubChem BioAssay AID192 (DTP/NCI, 2004)
Several values for one entry are separate records, joined by “and”; a condition that tells them apart may be missing. Identical values can stand only once. Toxic doses and inconclusive results are not listed. How the source made its calls: active means survival T/C of 150% or more; inactive means T/C below 125% in these data.

System: BDF1 mice, B16 melanoma ip, median survival T/C
Experiment: NCI In Vivo Anticancer Drug Screen. Data for tumor model B16 Melanoma (intraperitoneal) in B6D2F1 (BDF1) mice
Settings: endpoint: median survival time, higher = longer survival
Summary of the method: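 Survival or tumor size is measured after treatment of tumor-bearing mice and normalised to the vehicle-treated control group.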

[1] = dose: 6.25 mg/kg/injection, schedule: Q01DX009 (ip), vehicle: Klucel (hydroxypropylcellulose) (HPC)
[2] = dose: 12.5 mg/kg/injection, schedule: Q01DX009 (ip), vehicle: Klucel (hydroxypropylcellulose) (HPC)
[3] = dose: 25.0 mg/kg/injection, schedule: Q01DX009 (ip), vehicle: Klucel (hydroxypropylcellulose) (HPC)
[4] = dose: 100.0 mg/kg/injection, schedule: Q01DX009 (ip), vehicle: Klucel (hydroxypropylcellulose) (HPC)
[5] = dose: 25.0 mg/kg/injection, schedule: Q01DX009 (ip), vehicle: saline
[6] = dose: 50.0 mg/kg/injection, schedule: Q01DX009 (ip), vehicle: saline
[7] = dose: 100.0 mg/kg/injection, schedule: Q01DX009 (ip), vehicle: saline
[8] = dose: 50.0 mg/kg/injection, schedule: Q01DX009 (ip), vehicle: saline with Tween-80
[9] = dose: 100.0 mg/kg/injection, schedule: Q01DX009 (ip), vehicle: saline with Tween-80
[10] = dose: 200.0 mg/kg/injection, schedule: Q01DX009 (ip), vehicle: saline with Tween-80
[11] = dose: 400.0 mg/kg/injection, schedule: Q01DX009 (ip), vehicle: saline with Tween-80

Measured: T/C

CN(N=O)C(=O)N[C@@H](C=O)[C@@H](O)[C@H](O)[C@H](O)CO
inactive: dose: 12.5 mg/kg/injection, schedule: Q01DX009 (ip), vehicle: citric acid 105 % of control | dose: 12.5 mg/kg/injection, schedule: Q01DX009 (ip), vehicle: other 109 % of control and 117 % of control (2×) | dose: 25.0 mg/kg/injection, schedule: Q01DX009 (ip), vehicle: citric acid 106 % of control | dose: 25.0 mg/kg/injection, schedule: Q01DX009 (ip), vehicle: other 105 % of control and 118 % of control and 124 % of control | dose: 37.5 mg/kg/injection, schedule: Q04DX003 (ip), vehicle: saline 90 % of control and 115 % of control | dose: 50.0 mg/kg/injection, schedule: Q01DX009 (ip), vehicle: citric acid 117 % of control | dose: 75.0 mg/kg/injection, schedule: Q04DX003 (ip), vehicle: saline 118 % of control | dose: 150.0 mg/kg/injection, schedule: Q04DX003 (ip), vehicle: saline 116 % of control | dose: 300.0 mg/kg/injection, schedule: Q04DX003 (ip), vehicle: saline 45 % of control and 118 % of control

O=Nc1ccc2cc(O)ccc2c1O
inactive: dose: 3.12 mg/kg/injection, schedule: Q04DX003 (ip), vehicle: Klucel (hydroxypropylcellulose) (HPC) 97 % of control | [1] 95 % of control | dose: 6.25 mg/kg/injection, schedule: Q04DX003 (ip), vehicle: Klucel (hydroxypropylcellulose) (HPC) 102 % of control | [2] 109 % of control | dose: 12.5 mg/kg/injection, schedule: Q04DX003 (ip), vehicle: Klucel (hydroxypropylcellulose) (HPC) 100 % of control

CC(C)=CN1CCOCC1
inactive: [3] 94 % of control | dose: 50.0 mg/kg/injection, schedule: Q01DX009 (ip), vehicle: Klucel (hydroxypropylcellulose) (HPC) 100 % of control | [4] 94 % of control

CCCC(=O)O
inactive: dose: 12.5 mg/kg/injection, schedule: Q01DX009 (ip), vehicle: saline 106 % of control | [5] 101 % of control | [6] 92 % of control | [7] 106 % of control

Cn1ccc(=Nc2ccc(NC(=O)c3ccc(N=c4ccn(C)c5ccc([N+](=O)[O-])cc45)cc3[N+](=O)[O-])cc2)cc1
inactive: dose: 12.5 mg/kg/injection, schedule: Q01DX009 (ip), vehicle: saline with Tween-80 96 % of control | dose: 25.0 mg/kg/injection, schedule: Q01DX009 (ip), vehicle: saline with Tween-80 97 % of control | [8] 97 % of control | [9] 105 % of control | [10] 97 % of control | [11] 91 % of control

Cc1cc(C)c(OC2=C(c3c(C)cc(C)cc3C)C(=O)c3ccccc32)c(C)c1
inactive: [8] 104 % of control | [9] 100 % of control | [10] 98 % of control | [11] 91 % of control

CC(O)(C(=O)O)c1ccccc1 (stereo not drawn) (tested in a mixture with another compound)
inactive: [4] 94 % of control | dose: 200.0 mg/kg/injection, schedule: Q01DX009 (ip), vehicle: Klucel (hydroxypropylcellulose) (HPC) 105 % of control | dose: 400.0 mg/kg/injection, schedule: Q01DX009 (ip), vehicle: Klucel (hydroxypropylcellulose) (HPC) 97 % of control

CC(=O)OCc1cc(=O)n(C)c2c3c4c(cc12)c(C)cc(=O)n4CO3
inactive: [1] 122 % of control | [2] 120 % of control | [3] 121 % of control

Cc1ccc(NC(=O)c2ccc(Cl)cc2)c(C)c1
inactive: dose: 75.0 mg/kg/injection, schedule: Q01DX009 (ip), vehicle: Klucel (hydroxypropylcellulose) (HPC) 93 % of control | dose: 150.0 mg/kg/injection, schedule: Q01DX009 (ip), vehicle: Klucel (hydroxypropylcellulose) (HPC) 91 % of control | dose: 300.0 mg/kg/injection, schedule: Q01DX009 (ip), vehicle: Klucel (hydroxypropylcellulose) (HPC) 88 % of control

CC1(C)N=C(N)N=C(N)N1c1ccc(OCC(=O)N2CCOCC2)c(Cl)c1
inactive: [5] 104 % of control | [6] 93 % of control | [7] 98 % of control
